Data taken from ChEMBL document CHEMBL1201862, “PubChem BioAssay data set” (2004).
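Compound exposure: 48 hours, 5 concentrations, 96-well plates. At the GI50, growth is halved.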 Activity calls are given as the source filed them. No stated cut-off is given here; in the data, active = GI50 up to about 1.1 µM and inactive = higher.

Columns and labels:
Test in all cases: growth of human tumour cells (NCI), 48 h
SR = tested on: SR
OVCAR-8 = tested on: OVCAR-8
HL-60 = tested on: HL-60
CAKI-1 = tested on: CAKI-1
SNB-75 = tested on: SNB-75
SK-MEL-28 = tested on: SK-MEL-28
K562 = tested on: K562
786-0 = tested on: 786-0
A498 = tested on: A498
HCC 2998 = tested on: HCC 2998
CCRF-CEM = tested on: CCRF-CEM
LOX IMVI = tested on: LOX IMVI
SN12C = tested on: SN12C
OVCAR-3 = tested on: OVCAR-3
HOP-62 = tested on: HOP-62
SF-539 = tested on: SF-539
NCI/ADR-RES = tested on: NCI/ADR-RES
MDA-MB-231 = tested on: MDA-MB-231
MDA-N = tested on: MDA-N

Measured: GI50

O=C1c2cccc3cc([N+](=O)[O-])cc(c23)C(=O)N1NC1=NCCN1
inactive: SR > 100 µM | OVCAR-8 > 100 µM | HL-60 > 100 µM | CAKI-1 > 100 µM | SNB-75 > 100 µM | SK-MEL-28 > 100 µM | K562 > 100 µM | 786-0 > 100 µM | A498 > 100 µM | HCC 2998 > 100 µM | CCRF-CEM > 100 µM | LOX IMVI > 100 µM | SN12C > 100 µM | OVCAR-3 > 100 µM | HOP-62 > 100 µM | SF-539 > 100 µM

C=CCOCCCCC(C(C)=O)C(=O)OC (configuration not stated)
inactive: SR > 100 µM | OVCAR-8 > 100 µM | HL-60 > 100 µM | CAKI-1 > 100 µM | SNB-75 > 100 µM | SK-MEL-28 > 100 µM | K562 > 100 µM | 786-0 > 100 µM | A498 > 100 µM | HCC 2998 > 100 µM | CCRF-CEM > 100 µM | LOX IMVI > 100 µM | SN12C > 100 µM | OVCAR-3 > 100 µM | SF-539 > 100 µM

CN(C)P(=O)(Oc1occc1C(O)Cc1ccccc1)N(C)C (configuration not stated)
inactive: NCI/ADR-RES > 100 µM | OVCAR-8 > 100 µM | CAKI-1 > 100 µM | SNB-75 > 100 µM | SK-MEL-28 > 100 µM | 786-0 > 100 µM | A498 > 100 µM | HCC 2998 > 100 µM | CCRF-CEM > 100 µM | MDA-MB-231 > 100 µM | LOX IMVI > 100 µM | MDA-N > 100 µM | SN12C > 100 µM | OVCAR-3 > 100 µM | HOP-62 > 100 µM | SF-539 > 100 µM

c1ccc(CCN2CCc3[nH]c4ccccc4c3C2)cc1
inactive: NCI/ADR-RES 20.3 µM | SR 27.9 µM | OVCAR-8 20.4 µM | HL-60 19 µM | SNB-75 29 µM | SK-MEL-28 20 µM | K562 16.9 µM | 786-0 17.1 µM | A498 13.9 µM | HCC 2998 16.3 µM | CCRF-CEM 32.6 µM | MDA-MB-231 33 µM | LOX IMVI 19.5 µM | SN12C 27.9 µM | HOP-62 19.5 µM | SF-539 22.8 µM

O=[N+]([O-])c1ccccc1[S+]([O-])c1ccccc1 (configuration not stated)
inactive: SR 71.8 µM | OVCAR-8 > 100 µM | HL-60 27.7 µM | CAKI-1 60.4 µM | SNB-75 22.1 µM | SK-MEL-28 > 100 µM | K562 35.1 µM | 786-0 > 100 µM | A498 63.2 µM | HCC 2998 97.7 µM | CCRF-CEM 47.8 µM | LOX IMVI 21.1 µM | SN12C 75.5 µM | OVCAR-3 73.8 µM | HOP-62 > 100 µM | SF-539 70.6 µM

CC(C)C(=O)Nc1nc2[nH]cnc2c(=O)[nH]1
inactive: SR > 100 µM | OVCAR-8 > 100 µM | HL-60 > 100 µM | CAKI-1 > 100 µM | SNB-75 > 100 µM | SK-MEL-28 > 100 µM | K562 > 100 µM | 786-0 > 100 µM | A498 > 100 µM | HCC 2998 > 100 µM | CCRF-CEM > 100 µM | LOX IMVI > 100 µM | SN12C > 100 µM | OVCAR-3 > 100 µM | HOP-62 > 100 µM | SF-539 > 100 µM

COC(=O)c1cc2c(nc1C)-c1ccccc1OS2(=O)=O
inactive: SR > 100 µM | OVCAR-8 79.8 µM | HL-60 > 100 µM | CAKI-1 > 100 µM | SNB-75 17.9 µM | K562 > 100 µM | 786-0 70 µM | A498 > 100 µM | HCC 2998 > 100 µM | CCRF-CEM > 100 µM | LOX IMVI > 100 µM | SN12C > 100 µM | OVCAR-3 > 100 µM | HOP-62 27.5 µM | SF-539 54.5 µM

C/C(CCn1[nH]c(=O)ccc1=O)=N\Nc1ccc([N+](=O)[O-])cc1[N+](=O)[O-]
inactive: SR > 100 µM | OVCAR-8 93.1 µM | HL-60 > 100 µM | CAKI-1 > 100 µM | SNB-75 > 100 µM | SK-MEL-28 > 100 µM | K562 20.6 µM | 786-0 > 100 µM | A498 > 100 µM | HCC 2998 > 100 µM | CCRF-CEM > 100 µM | LOX IMVI 26.8 µM | SN12C > 100 µM | OVCAR-3 > 100 µM | HOP-62 > 100 µM | SF-539 95.5 µM

CC(C)(C)c1cc(-c2c3nc(c(-c4cc(C(C)(C)C)cc(C(C)(C)C)c4)c4ccc([nH]4)c(-c4cc(C(C)(C)C)cc(C(C)(C)C)c4)c4nc(c(-c5cc(C(C)(C)C)cc(C(C)(C)C)c5)c5ccc2[nH]5)C=C4)C=C3)cc(C(C)(C)C)c1
inactive: SR > 100 µM | OVCAR-8 > 100 µM | HL-60 > 100 µM | CAKI-1 > 100 µM | SNB-75 > 100 µM | SK-MEL-28 > 100 µM | K562 > 100 µM | 786-0 > 100 µM | A498 > 100 µM | HCC 2998 > 100 µM | CCRF-CEM > 100 µM | LOX IMVI > 100 µM | SN12C > 100 µM | OVCAR-3 > 100 µM | HOP-62 > 100 µM | SF-539 > 100 µM

CN(C)c1n/c(=N/c2ncn[nH]2)ss1
inactive: SR > 100 µM | OVCAR-8 > 100 µM | HL-60 > 100 µM | CAKI-1 > 100 µM | SNB-75 > 100 µM | SK-MEL-28 > 100 µM | K562 > 100 µM | 786-0 > 100 µM | A498 > 100 µM | HCC 2998 > 100 µM | CCRF-CEM > 100 µM | LOX IMVI > 100 µM | SN12C > 100 µM | HOP-62 > 100 µM | SF-539 > 100 µM

CN1CCC(=O)/C(=C/c2ccccc2)C1
inactive: SR 2.91 µM | OVCAR-8 22 µM | HL-60 9.35 µM | CAKI-1 17.9 µM | SNB-75 6.85 µM | SK-MEL-28 18.2 µM | K562 5.24 µM | 786-0 12.5 µM | A498 18.5 µM | HCC 2998 10.9 µM | CCRF-CEM 8.93 µM | LOX IMVI 5.58 µM | SN12C 14.7 µM | OVCAR-3 11.6 µM | HOP-62 20.6 µM | SF-539 17.7 µM

CN1CC(=O)N(C)c2[nH]cnc2C1=O
inactive: SR > 100 µM | OVCAR-8 > 100 µM | HL-60 > 100 µM | SNB-75 > 100 µM | SK-MEL-28 > 100 µM | K562 > 100 µM | 786-0 > 100 µM | A498 > 100 µM | HCC 2998 > 100 µM | CCRF-CEM > 100 µM | LOX IMVI > 100 µM | SN12C > 100 µM | OVCAR-3 > 100 µM | SF-539 > 100 µM
